From US20230322846A9, “NEUROACTIVE STEROIDS AND THEIR METHODS OF USE” (SAGE THERAPEUTICS, INC., priority 2018, published 2023)

What follows are compounds tested against [35S]-TBPS binding, rat brain cortical membranes (assay: Steroid inhibition of [35S]-TBPS binding). Settings: 3 nM [35S]-TBPS, in the presence of 5 mM GABA.
Summary of the method: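 In the presence of […], compounds (DMSO 0.5% final) competed with 3 nM [35S]-TBPS for Sprague-Dawley rat cortical membranes, pH 7.4 phosphate buffer, 90 min, room temperature. Filtration and scintillation counting; specific binding defined by […]; IC50 and maximal inhibition fitted per experiment, averaged as mean ± SEM.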

Which IC50 does the source give for COC[C@@]1(O)CC[C@@]2(C)[C@H](CC[C@@H]3[C@@H]2CC[C@@]2(C)[C@H]3CC[C@]2(O)[C@@H](C)Cn2cc(C#N)cn2)C1 [Example 351, 1-((S)-2-((3R,5R,8R,9S,10S,13S,14S,17S)-3,17-dihydroxy-3-(methoxymethyl)-10,13-dimethylhexadecahydro-1H-cyclopenta[a]phenanthren-17-yl)propyl)-1H-pyrazole-4-carbonitrile] here?
The IC50 was 1000 to 10000 nM.

For CCOC[C@@]1(O)CC[C@@]2(C)[C@H](CC[C@H]3C4CC[C@H]([C@@H](C)Nc5ccc(-n6cc(C#N)cn6)cn5)[C@@]4(C)CC[C@@H]32)C1 (stereo partly shown) [Example 504], which IC50 is on record?
The IC50 was 100 to 1000 nM.

With C[C@@H](NC(=O)c1ccccc1F)[C@H]1CC[C@H]2[C@@H]3CC[C@@H]4C[C@](C)(O)CC[C@@H]4[C@H]3CC[C@]12C [Example 103] as the compound, how does the IC50 read?
The IC50 was under 100 nM.

How did the IC50 turn out when C[C@@]1(O)CC[C@H]2[C@H](CC[C@@H]3[C@@H]2CC[C@]2(C)[C@@H]([C@H](C#N)Cn4cc(C#N)cn4)CC[C@@H]32)C1 [Example 355, 1-((S)-2-cyano-2-((3R,5R,8R,9R,10S,13S,14S,17R)-3-hydroxy-3,13-dimethylhexadecahydro-1H-cyclopenta[a]phenanthren-17-yl)ethyl)-1H-pyrazole-4-carbonitrile] was run?
The IC50 was under 100 nM.

With CN(C[C@H]1CC[C@H]2[C@@H]3CC[C@@H]4C[C@](C)(O)CC[C@@H]4[C@H]3CC[C@]12C)S(=O)(=O)c1ccccc1 [Example 5, N-(((3R,5R,8R,9R,10S,13S,14S,17S)-3-hydroxy-3,13-dimethylhexadecahydro-1H-cyclopenta[a]phenanthren-17-yl)methyl)-N-methylbenzenesulfonamide] as the compound, how does the IC50 read?
The IC50 was under 100 nM.

With CCC[C@@]1(O)CC[C@H]2[C@H](CC[C@@H]3[C@@H]2CC[C@]2(C)[C@@H]([C@@H](C)Nc4ccc(C#N)cn4)CC[C@@H]32)C1 [Example 90, 6-(((R)-1-((3R,5R,8R,9R,10S,13S,14S,17S)-3-hydroxy-13-methyl-3-propylhexadecahydro-1H-cyclopenta[a]phenanthren-17-yl)ethyl)amino)nicotinonitrile] as the compound, how does the IC50 read?
Its IC50 is 100 to 1000 nM.

Which IC50 does the source give for CC[C@@]1(O)CC[C@H]2[C@@H](CC[C@@H]3[C@@H]2CC[C@]2(C)[C@@H]([C@@H](C)Cn4nnc(C)n4)CC[C@@H]32)C1 [Example 333, (3R,5S,8R,9R,10S,13S,14S,17R)-3-ethyl-13-methyl-17-((R)-1-(5-methyl-2H-tetrazol-2-yl)propan-2-yl)hexadecahydro-1H-cyclopenta[a]phenanthren-3-ol] here?
The IC50 was 100 to 1000 nM.

For CCOC[C@@]1(O)CC[C@H]2[C@H](CC[C@@H]3[C@@H]2CC[C@]2(C)[C@@H]([C@H](C)Cc4cccc(C#N)n4)CC[C@@H]32)C1 [Example 412], which IC50 is on record?
The IC50 was 100 to 1000 nM.

CCOC[C@@]1(O)CC[C@H]2[C@H](CC[C@@H]3[C@@H]2CC[C@]2(C)[C@@H]([C@@H](C)N4CCc5cc(C#N)ccc5C4=O)CC[C@@H]32)C1 [Example 46, 2-((R)-1-((3R,5R,8R,9R,10S,13S,14S,17S)-3-(ethoxymethyl)-3-hydroxy-13-methylhexadecahydro-1H-cyclopenta[a]phenanthren-17-yl)ethyl)-1-oxo-1,2,3,4-tetrahydroisoquinoline-6-carbonitrile] was tested. Which IC50 did it give?
The IC50 was under 100 nM.

With C[C@@H](NC(=O)c1ccc(C#N)cc1)[C@H]1CC[C@H]2[C@@H]3CC[C@@H]4C[C@](C)(O)CC[C@@H]4[C@H]3CC[C@]12C [Example 108] as the compound, how does the IC50 read?
The IC50 was 100 to 1000 nM.

With CCC[C@@]1(O)CC[C@H]2[C@@H](CC[C@@H]3[C@@H]2CC[C@]2(C)[C@@H]([C@@H](C)Cn4nnc(C)n4)CC[C@@H]32)C1 [Example 329, (3R,5S,8R,9R,10S,13S,14S,17R)-13-methyl-17-((R)-1-(5-methyl-2H-tetrazol-2-yl)propan-2-yl)-3-propylhexadecahydro-1H-cyclopenta[a]phenanthren-3-ol] as the compound, how does the IC50 read?
Its IC50 is at least 10000 nM.

COC[C@@]1(O)CC[C@H]2[C@H](CC[C@@H]3[C@@H]2CC[C@]2(C)[C@@H]([C@@H](C)NC(=O)c4ccc(OC(F)(F)F)cc4)CC[C@@H]32)C1 [Example 111] was tested. Which IC50 did it give?
Its IC50 is under 100 nM.

With C[C@@H](N[C@H](C)[C@H]1CC[C@H]2[C@@H]3CC[C@@H]4C[C@](C)(O)CC[C@@H]4[C@H]3CC[C@]12C)c1ccccc1 [Example 208] as the compound, how does the IC50 read?
Its IC50 is 100 to 1000 nM.

For CC[C@@]1(O)CC[C@@]2(C)[C@@H](CC[C@@H]3[C@@H]2CC[C@]2(C)[C@@H]([C@@H](C)Cn4nnc(C)n4)CC[C@@H]32)C1 [Example 359, (3R,5S,8R,9S,10S,13S,14S,17R)-3-ethyl-10,13-dimethyl-17-((R)-1-(5-methyl-2H-tetrazol-2-yl)propan-2-yl)hexadecahydro-1H-cyclopenta[a]phenanthren-3-ol], which IC50 is on record?
The IC50 was at least 10000 nM.

With CCOC(=O)c1cnc(C[C@H](C)[C@H]2CC[C@H]3[C@@H]4CC[C@H]5C[C@](C)(O)CC[C@@H]5[C@H]4CC[C@]23C)o1 (stereo in doubt) [Example 455] as the compound, how does the IC50 read?
Its IC50 is under 100 nM.

With COC[C@@]1(O)CC[C@H]2[C@H](CC[C@@H]3[C@@H]2CC[C@]2(C)[C@@H]([C@@H](C)NC(=O)c4ccc(C#N)cc4F)CC[C@@H]32)C1 [Example 131] as the compound, how does the IC50 read?
Its IC50 is under 100 nM.

Which IC50 does the source give for C[C@@]1(O)CC[C@H]2[C@H](CC[C@@H]3[C@@H]2CC[C@]2(C)[C@@H](CN4CC[C@H](c5ccccc5)C4=O)CC[C@@H]32)C1 [Example 12, (R)-1-(((3R,5R,8R,9R,10S,13S,14S,17S)-3-hydroxy-3,13-dimethylhexadecahydro-1H-cyclopenta[a]phenanthren-17-yl)methyl)-3-phenylpyrrolidin-2-one] here?
Its IC50 is under 100 nM.

For C[C@@H]([C@H]1CC[C@H]2[C@@H]3CC[C@@H]4C[C@](C)(O)CC[C@@H]4[C@H]3CC[C@]12C)N(C)C(=O)c1ccccc1 [Example 19, N—((S)-1-((3R,5R,8R,9R,10S,13S,14S,17S)-3-hydroxy-3,13-dimethylhexadecahydro-1H-cyclopenta[a]phenanthren-17-yl)ethyl)-N-methylbenzamide], which IC50 is on record?
Its IC50 is 1000 to 10000 nM.

For CC(C)C[C@@]1(O)CC[C@H]2[C@H](CC[C@@H]3[C@@H]2CC[C@]2(C)[C@@H]([C@H](C)Cn4cc(C#N)cn4)CC[C@@H]32)C1 [Example 300, 1-((S)-2-((3S,5R,8R,9R,10S,13S,14S,17R)-3-hydroxy-3-isobutyl-13-methylhexadecahydro-1H-cyclopenta[a]phenanthren-17-yl)propyl)-1H-pyrazole-4-carbonitrile], which IC50 is on record?
Its IC50 is under 100 nM.

Which IC50 does the source give for CCOC[C@@]1(O)CC[C@H]2[C@H](CC[C@@H]3[C@@H]2CC[C@]2(C)[C@@H]([C@@H](C)Nc4ccc(C#N)nc4)CC[C@@H]32)C1 [Example 261] here?
Its IC50 is 100 to 1000 nM.

For C[C@H](NC(=O)c1cccc(C#N)c1)[C@H]1CC[C@H]2[C@@H]3CC[C@@H]4C[C@](C)(O)CC[C@@H]4[C@H]3CC[C@]12C [Example 110], which IC50 is on record?
Its IC50 is 1000 to 10000 nM.

With COC[C@@]1(O)CC[C@H]2[C@H](CC[C@@H]3[C@@H]2CC[C@]2(C)[C@@H]([C@H](C)n4ncc(C#N)c4N)CC[C@@H]32)C1 [Example 153, 5-amino-1-((S)-1-((3R,5R,8R,9R,10S,13S,14S,17S)-3-hydroxy-3-(methoxymethyl)-13-methylhexadecahydro-1H-cyclopenta[a]phenanthren-17-yl)ethyl)-1H-pyrazole-4-carbonitrile] as the compound, how does the IC50 read?
The IC50 was 1000 to 10000 nM.

Which IC50 does the source give for COC[C@@]1(O)CC[C@H]2[C@H](CC[C@@H]3[C@@H]2CC[C@]2(C)[C@@H]([C@@H](C)NC(=O)c4ccc(C#N)cn4)CC[C@@H]32)C1 [Example 31, 5-cyano-N—((R)-1-((3R,5R,8R,9R,10S,13S,14S,17S)-3-hydroxy-3-(methoxymethyl)-13-methylhexadecahydro-1H-cyclopenta[a]phenanthren-17-yl)ethyl)picolinamide] here?
Its IC50 is 100 to 1000 nM.

Which IC50 does the source give for CCOC[C@@]1(O)CC[C@H]2[C@H](CC[C@@H]3[C@@H]2CC[C@]2(C)[C@@H]([C@@H](C)N(C)S(=O)(=O)c4ccc(C#N)cc4)CC[C@@H]32)C1 [Example 68, 4-cyano-N—((R)-1-((3R,5R,8R,9R,10S,13S,14S,17S)-3-(ethoxymethyl)-3-hydroxy-13-methylhexadecahydro-1H-cyclopenta[a]phenanthren-17-yl)ethyl)-N-methylbenzenesulfonamide] here?
Its IC50 is under 100 nM.

For CCOC[C@@]1(O)CC[C@H]2[C@H](CC[C@@H]3[C@@H]2CC[C@]2(C)[C@@H]([C@@H](Nc4ccc(C#N)cc4C)C(F)(F)F)CC[C@@H]32)C1 [Example 488, 4-(((R)-1-((3R,5R,8R,9R,10S,13S,14S,17S)-3-(ethoxymethyl)-3-hydroxy-13-methylhexadecahydro-1H-cyclopenta[a]phenanthren-17-yl)-2,2,2-trifluoroethyl)amino)-3-methylbenzonitrile], which IC50 is on record?
Its IC50 is 1000 to 10000 nM.

How did the IC50 turn out when C[C@H](Nc1ccc(C#N)cc1)[C@H]1CC[C@H]2[C@@H]3CC[C@@H]4C[C@](C)(O)CC[C@@H]4[C@H]3CC[C@]12C [Example 205] was run?
Its IC50 is 1000 to 10000 nM.

For CC[C@@]1(O)CC[C@@]2(C)[C@@H](CC[C@@H]3[C@@H]2CC[C@]2(C)[C@@H]([C@H](C)Cn4nnc(C)n4)CC[C@@H]32)C1 [Example 360, (3R,5S,8R,9S,10S,13S,14S,17R)-3-ethyl-10,13-dimethyl-17-((S)-1-(5-methyl-2H-tetrazol-2-yl)propan-2-yl)hexadecahydro-1H-cyclopenta[a]phenanthren-3-ol], which IC50 is on record?
The IC50 was 1000 to 10000 nM.

With C[C@H]1CCCC(=O)N1C[C@H]1CC[C@H]2[C@@H]3CC[C@@H]4C[C@](C)(O)CC[C@@H]4[C@H]3CC[C@]12C [Example 6, (S)-1-(((3R,5R,8R,9R,10S,13S,14S,17S)-3-hydroxy-3,13-dimethylhexadecahydro-1H-cyclopenta[a]phenanthren-17-yl)methyl)-6-methylpiperidin-2-one] as the compound, how does the IC50 read?
The IC50 was 1000 to 10000 nM.
